The conditions of data set [1]: Fe(III) chelation; cited from earlier work.
A short description of data set [2]: Promoting excretion of 241Am(III) in mice by injected ligand. The class given is in vivo. Conditions: Am(III), ligand 30 mmol.kg-1 i.p at 3 to 5 min after actinide i.v., kill at 24 h. The text has this: (§1) Animal studies were completed using methods detailed in Radiation Protection Dosimetry, in press, P. W. Durbin et al., "In Vivo Chelation of Am(III), Pu(IV), Np(V) and U(VI) in Mice by TREN-(Me-3,2-HOPO)"; Radiation Protection Dosimetry, 17, No. 1, 1989, p. 351, P. W. Durbin et al., "Removal of ^238Pu(IV) from Mice by Polycatechoylate, -Hydroxamate or -Hydroxypyridinonate Ligands"; Radiation Research, 99, 1984, p. 85, P. W. Durbin et al., "Specific Sequestering Agents for the Actinides ..."; Radiation Research, 99, 1984, p. 106, P. W. Durbin et al., "Removal of Pu and Am from Beagles and Mice ..."; Radiation Research, 81, 1980, p. 170, R. D. Lloyd et al., and P. W. Durbin et al., "Specific Sequestering Agents for the Actinides ...". The foregoing articles are hereby incorporated by reference.
Radionuclides used in the animal studies came from a variety of sources. However, they can be purchased commercially. The ^238Pu(IV) citrate and ^241Am(III) citrate solutions were prepared for animal injection by 8- to 10-fold dilution with 0.14M NaCl (pH 4) of concentrated stock solutions (0.08M sodium citrate buffer) that had been held in frozen storage at Lawrence Berkeley Laboratory (hereinafter LBL) for several years. [The ^238Pu(IV) was originally obtained from D. R. Atherton at the University of Utah Radiobiology Laboratory, Salt Lake City. The ^241Am(III) solution had been obtained many years earlier from the LBL Actinide Chemistry group.]
(§2) One of the comparative chelating agents TREN-Me-3,2-HOPO, was also tested for effectiveness in promoting excretion of ^241Am(III), ^237Np(V), and ^232U(VI) by injection into mice, as follows: Mice, in groups of five, each received an intravenous injection of (a) 1100 Bq of ^241AM(III) in 0.2 mL of citrate buffer, (b) 150 Bq of ^232UO2Cl2 plus 3.6 mg of ^235UO2Cl2 in 0.2 mL of saline, or (c) 200 Bq of ^237NpO2Cl (7.5 mg of ^237NpO2Cl) in 0.2 mL of saline. Three to five minutes later, […] of TREN-Me-3,2-HOPO was injected intraperitoneally in 0.5 mL of saline. The mice were killed 24 hours after the actinide injection, frozen, and dissected after partial thawing. The skeleton, soft tissues, and separated excreta were radioanalyzed by counting the ^241Am gamma rays, or the alpha particles emitted by ^237Np or ^232U (and its ingrowing daughters). Removal of those actinides from mice by injected TREN-Me-3,2-HOPO is summarized in Table 5, which also includes data for mice similarly treated with CaNa3-DTPA and for actinide-injected controls. […] The structure of Am(III)-TREN-Me-3,2-HOPO is considered to resemble that of the Gd(III) complexes (see example 20). Complexation of the fraction of Np(V) that is reduced in vivo to Np(IV) is considered to resemble that of Pu(IV). Complexation of U(VI) is considered to take place through binding to UO2^2+.

Data set [3] is described as follows: Promoting excretion of 237Np(V) in mice by injected ligand. The format is in vivo. The note with it: Np(V), ligand 30 mmol.kg-1 i.p at 3 to 5 min after actinide i.v., kill at 24 h.
Text: as §1
The ^237Np(V) was obtained from J. Bucher of the LBL Actinide Chemistry group as NpO2Cl in 0.1 M HCl. It was diluted to the desired radioactivity concentration in 0.14M NaCl and the pH was adjusted to about 4.5 with NaOH just before use.
as §2

Data set [4] can be described thus: Promoting excretion of U(VI) in mice by injected ligand. The class given is in vivo. The note with it: U(VI), ligand 30 mmol.kg-1 i.p at 3 to 5 min after actinide i.v., kill at 24 h.
Text: as §1
The ^232U was obtained from the Isotope Products Laboratory, Burbank, CA, and ^234,235U was obtained as U metal from long-held LBL storage. The two U sources were combined and dissolved in 6N HNO3, dried, and redissolved in 0.1 N HCl. The daughter radioactivities were removed by elution from a Dowex-50X4 column (22 cm length, 0.7 cm diameter, 1.5 mL·min^-1 flow rate) with 3.2N HCl. The U fractions (previously identified by a trial run with ^234,235U alone) were combined, dried, and redissolved in 0.14M NaCl at pH 5.5.
as §2

The conditions of data set [5]: ligand 30 µmol kg^-1 ip at 1 h after iv ^238Pu(IV) citrate, kill at 24 h, reported previously, cited from earlier work.
A further data set is described as follows: Solubility in water. The class given is physicochemical. The note with it: in words.

Consider 3 compounds from patent EP0840727B1, “3-HYDROXY-2(1H)-[…] AGENTS” (priority 1995, dated 1997).

Marks after values point to notes of the source that are not given here.

With `O=C(N[C@H]1COC(=O)[C@@H](NC(=O)c2cccc(O)c2O)COC(=O)[C@@H](NC(=O)c2cccc(O)c2O)COC1=O)c1cccc(O)c1O` [enterobacun], in data set [1], the “formation constant Kf” value was 10^49 and the pM was 35.5.

Consider `O=C([O-])CN(CCN(CC(=O)[O-])CC(=O)[O-])CCN(CC(=O)[O-])CC(=O)[O-].[Ca+2].[Na+].[Na+].[Na+]` [CaNa3-DTPA, reference compound], for which, in data set [2], the “percent of injected actinide ± SD at 24 h, tissues: liver” value was 13 ± 1.5^d percent of injected actinide; the “percent of injected actinide ± SD at 24 h, tissues: skeleton” value is recorded as 8.5 ± 0.9^d percent of injected actinide; the “percent of injected actinide ± SD at 24 h, tissues: soft tissue” value is recorded as 1.9 ± 0.3^d percent of injected actinide; the “percent of injected actinide ± SD at 24 h, whole body” value is listed as 24 ± 1.3^d percent of injected actinide. Moreover, in data set [2] (pooled), the “percent of injected actinide at 24 h, excreta: feces and GI contents” value is recorded as 8.0% of injected actinide; the “percent of injected actinide at 24 h, excreta: urine 0-24 h” value was 68% of injected actinide; the “percent of injected actinide at 24 h, tissues: kidneys” value is given as 0.4% of injected actinide. In data set [3], the “percent of injected actinide ± SD at 24 h, tissues: liver” value is recorded as 14 ± 5.7% of injected actinide; the “percent of injected actinide ± SD at 24 h, tissues: skeleton” value is on record as 40 ± 4.4% of injected actinide; the “percent of injected actinide ± SD at 24 h, tissues: soft tissue” value is recorded as 3.5 ± 0.9% of injected actinide; the “percent of injected actinide ± SD at 24 h, whole body” value is 58 ± 8.0% of injected actinide. In data set [3] (pooled), the “percent of injected actinide at 24 h, excreta: feces and GI contents” value was 1.5% of injected actinide; the “percent of injected actinide at 24 h, excreta: urine 0-24 h” value is listed as 40% of injected actinide; the “percent of injected actinide at 24 h, tissues: kidneys” value is reported as 1.3% of injected actinide. For the same compound, in data set [4], the “percent of injected actinide ± SD at 24 h, tissues: kidneys” value was 17 ± 2.8% of injected actinide; the “percent of injected actinide ± SD at 24 h, tissues: skeleton” value is 19 ± 3.0% of injected actinide; the “percent of injected actinide ± SD at 24 h, tissues: soft tissue” value is reported as 2.2 ± 0.1% of injected actinide; the “percent of injected actinide ± SD at 24 h, whole body” value is given as 38 ± 0.7% of injected actinide. Further, the “percent of injected actinide at 24 h, combined excreta” value in data set [4] (feces, GI contents and urine combined) is given as 62^f percent of injected actinide. Further, in data set [4] (livers of some groups pooled), the “percent of injected actinide ± SD at 24 h, tissues: liver” value is reported as 1.0^c percent of injected actinide. Besides, in data set [5] (pooled samples), the “percent of injected ^238Pu at 24 h, excreta: feces and GI contents” value was 5.1% of injected ^238Pu; the “percent of injected ^238Pu at 24 h, excreta: urine 0-24 h” value is given as 61% of injected ^238Pu. For the same compound, in data set [5], the “percent of injected ^238Pu ± SD at 24 h, tissues: liver” value is reported as 17 ± 4.0% of injected ^238Pu; the “percent of injected ^238Pu ± SD at 24 h, tissues: skeleton” value was 12 ± 2.3% of injected ^238Pu; the “percent of injected ^238Pu ± SD at 24 h, tissues: soft tissue” value is given as 3.5 ± 1.6% of injected ^238Pu; the “percent of injected ^238Pu ± SD at 24 h, whole body” value was 33 ± 6.6% of injected ^238Pu.

Take `CCCNC(=O)c1ccn(C)c(=O)c1O` [3-hydroxy-1-methyl-4(1-propylcarbamoyl)-2(1H)-pyridinone]: the solubility in water entry in the data set “Solubility in water” is on record as “very soluble in water”.
